Legend:
αT3-1 gonadotrope cells = assay: mCherry DNA delivery in mixed culture, FACS: αT3-1 gonadotrope cells; format: cell-based, murine; conditions: for delivery of DNA into the cells: GnRH-crosslinked peptides; for αT3-1 gonadotrope cells expressing mCherry: mixed 1:10 with MEFs, 1.5 hours incubation, FACS after 48 hours
Description: (§1) Following 48 hours, cell were sorted by FACS to determine the numbers of cells expressing each fluorescent protein in a quantitative manner. The mCherry expression was detected in 58% of the αT3-1 gonadotrope cells, and in 3% of the MEFs.
(§2) Transfection with delivery peptides—Mixed cell cultures, in which the gonadotropes comprise ˜10% of the cells, as in the pituitary gland, were transferred to media without FCS or antibiotics and pre-incubated for 1.5 hours prior to transfection. The DNA: peptide mix (ratio 1:5; for every 1 μg DNA [mCherry or KRAB-Sf1], 5 μg peptide was used) was incubated for 5 minutes and then added to the cells. Following 1.5 hours the media was removed and replaced with fresh complete media. Cells were collected 24-48 hours later for counting by FACS to determine specificity and efficacy of the delivery, or after 2 weeks for gene expression analysis by qPCR. Further optimization in the mixed cell cultures utilized GnRH-crosslinked Peptide2 mixed 1:10 with non-crosslinked Peptide 2 to attain maximal efficiency and targeting specificity.
(§3) To test whether the newly designed GnRH-carrier might deliver DNA specifically to GnRH receptor-expressing cells, it was first applied to αT3-1 gonadotrope cells and Egr1 mRNA levels measured as a readout for GnRHR binding. […] Following, cells were sorted and counted by FACS to determine the number of cells expressing the delivered DNA in an unbiased manner. After optimization, the number of gonadotrope cells that were transfected reached around 58%, while only 3% of MEF cells expressed the mCherry (FIG. 12B). Assuming 80% of the αT3-1 indeed express the GnRH receptor, the targeting was successful in 72.5% of the GnRH receptor-expressing cells.

GnRH receptor (GnRHR) = biological target: T1, GnRH receptor (GnRHR) (Mus musculus, UniProt Q01776); assay: Egr1 mRNA induction as readout of GnRHR binding in αT3-1 cells; format: cell-based, murine; design: endogenous in cells; host or cells: αT3-1 gonadotrope cell line; conditions: αT3-1 gonadotrope cells
T1 sequence (Q01776 1-327): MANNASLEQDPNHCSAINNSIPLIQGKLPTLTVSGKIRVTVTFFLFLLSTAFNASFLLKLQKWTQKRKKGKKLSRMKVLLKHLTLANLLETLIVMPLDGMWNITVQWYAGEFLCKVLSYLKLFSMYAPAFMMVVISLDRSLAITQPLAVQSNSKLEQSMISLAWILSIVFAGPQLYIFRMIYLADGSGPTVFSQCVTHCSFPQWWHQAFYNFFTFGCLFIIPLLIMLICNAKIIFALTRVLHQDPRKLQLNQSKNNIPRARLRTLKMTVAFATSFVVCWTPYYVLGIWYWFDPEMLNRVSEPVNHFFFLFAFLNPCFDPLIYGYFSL
Description: as §1
RT-PCR—Real-time quantitative PCR was performed following RNA extraction (Trizol, Invitrogen followed by Zymo RNA purification kit+DNase) and reverse transcriptase (qScript cDNA synthesis kit, Quanta) using polymerase (2×qPCRBIO Fast qPCR SyGreen Blue Mix, Hi-ROX, PCR Biosystems) and the primers shown in Table 2 hereinbelow. Values were calculated using DNA standard curves and normalized to levels of Rplp0.
as §3

MEFs = assay: mCherry DNA delivery in mixed culture, FACS: MEFs; format: cell-based; conditions: mixed culture with αT3-1, 1.5 hours incubation, FACS after 48 hours
Description: as §1
as §2, with “Further optimization in the mixed cell cultures utilized GnRH-crosslinked Peptide2 mixed 1:10 with non-crosslinked Peptide 2 to attain maximal efficiency and targeting specificity.” left out
To test whether the newly designed GnRH-carrier might deliver DNA specifically to GnRH receptor-expressing cells, it was first applied to αT3-1 gonadotrope cells and Egr1 mRNA levels measured as a readout for GnRHR binding. […] Following, cells were sorted and counted by FACS to determine the number of cells expressing the delivered DNA in an unbiased manner. […]

[1] = test system: T2, Boc-Arg-Val-Arg-Arg-MCA reporter peptide substrate
T2 sequence: RVRR

LβT2 cells = assay: DNA delivery into LβT2 cells (qPCR of GFP transcript); format: cell-based; conditions: CPP packaged with DNA construct
Description: FIG. 8A is a schematic representation of a MDP containing protamine as a cell penetrating peptide (CPP), a NLS sequence and C-terminal cysteine cross-linked to GnRHLys6. […] Results are shown as mean±SEM, n=3. […] In FIG. 8E, LβT2 cells were treated with the MDP at two concentrations (200 ng DNA+300 ng MDP or 1 μg DNA+1.5 μg MDP), or 200 ng DNA was transfected using Polyjet reagent (positive control). Following 72 hours, RNA was extracted, purified and treated with DNAse, and qPCR performed using primers targeting the adaptor and GFP, and then by nested PCR targeting just the GFP. Results are shown as mean±SEM, n=3.
(§4) FIG. 9A is a schematic representation of the CPP (NF51) cross-linked to GnRH using this approach and then packaged with the DNA. In FIG. 9B, LβT2 or MEF cells were treated with the NF51-DNA alone, or after its crosslinking to GnRH Lys6. PCR was carried out as in FIG. 8E. Also shown are mRNA levels in samples that lacked the reverse transcriptase (RT).
The delivery delivery proteins—the minimal delivery protein (MDP) chimeric protein (protamine and NLS, SEQ ID NO: 89) was synthesized by GL Biochem. It was crosslinked to GnRH Lys6 analog (SEQ ID NO: 9, Sigma), via the Lys^6 of the GnRH and the C-terminal Cys of the above protein using sulfo-GMBS. The crosslinked protein was dialyzed against PBS. […]

MEF cells = assay: DNA delivery into MEF cells (qPCR of GFP transcript); format: cell-based; conditions: CPP packaged with DNA construct
Description: as §4
The delivery delivery proteins—the minimal delivery protein (MDP) chimeric protein (protamine and NLS, SEQ ID NO: 89) was synthesized by GL Biochem. It was crosslinked to GnRH Lys6 analog (SEQ ID NO: 9, Sigma), via the Lys^6 of the GnRH and the C-terminal Cys of the above protein using sulfo-GMBS. The crosslinked protein was dialyzed against PBS. NF51 ([stearyl-AGYLLG]-delta-[…], SEQ ID NO: 103 conjugated through Gly6 to the δ-NH2 group of ornithine 1 of SEQ ID NO: 100) was purchased commercially (Icosagen) and cross-linked to GnRH Lys6 using Traut reagent (Pierce) followed by sulfo-GMBS (Thermo Fisher). Peptide 1 comprises the same CPP sequence as NF51 with a terminal cysteine (stearyl-AGYLLG)-delta-[…]-NH2, SEQ ID NO: 103 conjugated through Gly6 to the δ-NH2 group of ornithine 1 of SEQ ID NO: 101) for direct cross-linking, and Peptide 2 contains also the PACE cleavage (stearyl-AGYLLG)-delta-[…]-NH2, SQ ID NO: 103 conjugated through Gly6 to the δ-NH2 group of ornithine 1 of SEQ ID NO: 102). […]

[2] = biological target: T3, Boc-Arg-Val-Arg-Arg-MCA reporter peptide substrate
T3 chain: RVRR

## (stearyl-AGYLLG)-delta-OINLKALAALAKKILC-NH2 [Peptide 1]
αT3-1 gonadotrope cells
  delivery of DNA into the cells: could deliver some DNA into the cells
GnRH receptor (GnRHR)
  Egr1 mRNA activation (GnRHR binding): also activated the receptor

## (stearyl-AGYLLG)-delta-OINLKALAALAKKILRVRRC-NH2 [GnRH Lys6-Peptide 2]
αT3-1 gonadotrope cells
  delivery of DNA into the cells: could deliver some DNA into the cells
  αT3-1 gonadotrope cells expressing mCherry: 58%
αT3-1 gonadotrope cells; assuming 80% of the αT3-1 express the GnRH receptor
  successful targeting of GnRH receptor-expressing cells: 72.5%
αT3-1 gonadotrope cells; compared with peptide without PACE4 cleavage site
  specificity of DNA delivery to gonadotropes: much more specific to gonadotropes
αT3-1 gonadotrope cells; listed as Peptide 2
  αT3-1 gonadotrope cells expressing mCherry: around 58%
MEFs
  MEFs expressing mCherry: 3%
GnRH receptor (GnRHR)
  Egr1 mRNA activation (GnRHR binding): activated Egr1 mRNA

## PACE4 secreted by LβT2 gonadotrope cells (in conditioned medium)
[1]
  fluorescence on cleavage of the substrate (380 nm ex/460 nm em): cutting the reporter and emitting fluorescence at a much higher level than seen in the incubation media of MEF cells

## [stearyl-AGYLLG]-delta-OINLKALAALAKKIL [NF51, reference compound]
LβT2 cells
  transfection of LβT2 gonadotrope cells: highly efficient
MEF cells
  transfection of MEF cells: highly efficient

B1: PACE4 secreted by PANC-1 pancreatic cells (in conditioned medium) (protein)
chain: QVRSDPQALYFNDPIWSNMWYLHCGDKNSRCRSEMNVQAAWKRGYTGKNVVVTILDDGIERNHPDLAPNYDSYASYDVNGNDYDPSPRYDASNENKHGTRCAGEVAASANNSYCIVGIAYNAKIGGIRMLDGDVTDVVEAKSLGIRPNYIDIYSASWGPDDDGKTVDGPGRLAKQAFEYGIKKGRQGLGSIFVWASGNGGREGDYCSCDGYTNSIYTISVSSATENGYKPWYLEECASTLATTYSSGAFYERKIVTTDLRQRCTDGHTGTSVSAPMVAGIIALALEANSQLTWRDVQHLLVKTSRPAHLKASDWKVNGAGHKVSHFYGFGLVDAEALVVEAKKWTAVPSQHMCVAASDKRPRSIPLVQVLRTTALTSACAEHSDQRVVYLEHVVVRTSISHPRRGDLQIYLVSPSGTKSQLLAKRLLDLSNEGFTNWEFMTVHCWGEKAEGQWTLEIQDLPSQVRNPEKQGKLKEWSLILYGTAEHPYHTFSAHQSRSRMLELSAPELEPPKAALSPSQVEVPEDEEDYTAQSTPGSANILQTSVCHPECGDKGCDGPNADQCLNCVHFSLGSVKTSRKCVSVCPLGYFGDTAARRCRRCHKGCETCSSRAATQCLSCRRGFYHHQEMNTCVTLCPAGFYADESQKNCLKCHPSCKKCVDEPEKCTVCKEGFSLARGSCIPDCEPGTYFDSELIRCGECHHTCGTCVGPGREECIHCAKNFHFHDWKCVPACGEGFYPEEMPGLPHKVCRRCDENCLSCAGSSRNCSRCKTGFTQLGTSCITNHTCSNADETFCEMVKSNRLCERKLFIQFCCRTCLLAG
[2]
  fluorescence on cleavage of the substrate: cutting the reporter and emitting fluorescence at a much higher levels than the HEK cells

— US20240301090A1, “COMPOSITIONS AND METHODS FOR TREATING A MEDICAL CONDITION” (priority 2021, published 2024)
